Experimental data published in the supplement of paper PMC4380931.

How the values were obtained:
[1] = test system: K2; test: apoptotic fraction of cells (caspase-3 NucView488 positive); higher = more apoptosis
Experimental: (§1)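 BRAF V600E/D melanoma cell lines were seeded in 96-well plates, treated in 4 replicates with seven doses (3.16 nM to 3.16 uM) of RAF/MEK inhibitors for 24, 48 or 72 h, and stained with Hoechst 33342 (nuclei) and DEVD-NucView488 caspase-3 substrate. Plates were imaged on an Operetta. Relative viability is the cell count normalised to a DMSO-treated control; apoptosis fraction is the fraction of NucView488-positive nuclei.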

[2] = test system: COLO858; test: as above
Experimental: as §1

[3] = test system: WM1552C; test: as above
Experimental: as §1

[4] = test system: MZ7MEL; test: as above
Experimental: as §1

[5] = test system: WM115; test: as above
Experimental: as §1

[6] = test system: COLO858; test: relative viability (cell count relative to DMSO-treated control) (fraction of DMSO control); higher = more viable cells / less drug effect
Experimental: as §1

[7] = test system: C32; test: as above
Experimental: as §1

CCCS(=O)(=O)Nc1ccc(F)c(C(=O)c2c[nH]c3ncc(Cl)cc23)c1F [PLX4720]
Settings | apoptotic fraction of cells, [1] | apoptotic fraction of cells, [2] | apoptotic fraction of cells, [3] | apoptotic fraction of cells, [4] | apoptotic fraction of cells, [5] | relative viability, [6] | relative viability, [7]
24 h, 0.00316 µM | 0.00502 | 0.0469 | 0.0609 | 0.013 | 0.0488 | 1.03 | 0.98
24 h, 0.01 µM | 0.00388 | 0.0452 | 0.0582 | 0.0082 | 0.0373 | 1.15 | 1
24 h, 0.0316 µM | 0.00353 | 0.0424 | 0.0522 | 0.01 | 0.0513 | 1.21 | 1.04
24 h, 0.1 µM | 0.00321 | 0.0482 | 0.0708 | 0.00501 | 0.0369 | 1.17 | 1.01
24 h, 0.316 µM | 0.00817 | 0.0562 | 0.0728 | 0.00918 | 0.0371 | 1.02 | 0.942
24 h, 1 µM | 0.0503 | 0.108 | 0.0756 | 0.0127 | 0.0643 | 0.946 | 0.824
24 h, 3.16 µM | 0.153 | 0.154 | 0.0738 | 0.0325 | 0.0673 | 0.808 | 0.693
48 h, 0.00316 µM | 0.00236 | 0.0522 | 0.0618 | 0.0158 | 0.0421 | 0.968 | 1.11
48 h, 0.01 µM | 0.00224 | 0.0523 | 0.0656 | 0.0193 | 0.0454 | 1.07 | 0.905
48 h, 0.0316 µM | 0.00201 | 0.0462 | 0.0655 | 0.0129 | 0.0356 | 1.06 | 0.929
48 h, 0.1 µM | 0.00525 | 0.0498 | 0.0534 | 0.0113 | 0.0312 | 0.893 | 1.01
48 h, 0.316 µM | 0.0166 | 0.0785 | 0.044 | 0.0205 | 0.0333 | 0.538 | 0.857
48 h, 1 µM | 0.0858 | 0.184 | 0.0563 | 0.0277 | 0.0466 | 0.407 | 0.454
48 h, 3.16 µM | 0.173 | 0.323 | 0.0762 | 0.0483 | 0.122 | 0.306 | 0.155
72 h, 0.00316 µM | – | 0.0883 | 0.0768 | 0.0184 | 0.0312 | 1.13 | 0.957
72 h, 0.01 µM | – | 0.0826 | 0.0708 | 0.0171 | 0.0316 | 1.2 | 1.08
72 h, 0.0316 µM | – | 0.0717 | 0.0682 | 0.0142 | 0.0268 | 1.19 | 1.1
72 h, 0.1 µM | – | 0.053 | 0.063 | 0.0198 | 0.0303 | 0.893 | 0.937
72 h, 0.316 µM | – | 0.0842 | 0.0671 | 0.0439 | 0.0415 | 0.569 | 0.516
72 h, 1 µM | – | 0.183 | 0.0953 | 0.105 | 0.129 | 0.417 | 0.182
72 h, 3.16 µM | – | 0.374 | 0.129 | 0.151 | 0.381 | 0.273 | 0.0669
